Assays:
[1] = target: GST-tagged truncated LRRK2 (Homo sapiens (Human), UniProt Q5S007); test: LRRK2 Lantha Screen kinase assay; type: biochemical; conditions: geometric mean of 2-5 determinations unless otherwise indicated (a: >=6 determinations; b: single determination); read-out: LRRK2 WT IC50
mutant G2019S LRRK2 = mutant G2019S LRRK2 (Homo sapiens (Human), UniProt Q5S007, G2019S); test: LRRK2 Lantha Screen kinase assay, mutant enzyme; type: biochemical; conditions: geometric mean of 2-5 determinations unless otherwise indicated (a: >=6 determinations; b: single determination)
mutant G2019S LRRK2, sequence (Q5S007 970-2527 G2019S): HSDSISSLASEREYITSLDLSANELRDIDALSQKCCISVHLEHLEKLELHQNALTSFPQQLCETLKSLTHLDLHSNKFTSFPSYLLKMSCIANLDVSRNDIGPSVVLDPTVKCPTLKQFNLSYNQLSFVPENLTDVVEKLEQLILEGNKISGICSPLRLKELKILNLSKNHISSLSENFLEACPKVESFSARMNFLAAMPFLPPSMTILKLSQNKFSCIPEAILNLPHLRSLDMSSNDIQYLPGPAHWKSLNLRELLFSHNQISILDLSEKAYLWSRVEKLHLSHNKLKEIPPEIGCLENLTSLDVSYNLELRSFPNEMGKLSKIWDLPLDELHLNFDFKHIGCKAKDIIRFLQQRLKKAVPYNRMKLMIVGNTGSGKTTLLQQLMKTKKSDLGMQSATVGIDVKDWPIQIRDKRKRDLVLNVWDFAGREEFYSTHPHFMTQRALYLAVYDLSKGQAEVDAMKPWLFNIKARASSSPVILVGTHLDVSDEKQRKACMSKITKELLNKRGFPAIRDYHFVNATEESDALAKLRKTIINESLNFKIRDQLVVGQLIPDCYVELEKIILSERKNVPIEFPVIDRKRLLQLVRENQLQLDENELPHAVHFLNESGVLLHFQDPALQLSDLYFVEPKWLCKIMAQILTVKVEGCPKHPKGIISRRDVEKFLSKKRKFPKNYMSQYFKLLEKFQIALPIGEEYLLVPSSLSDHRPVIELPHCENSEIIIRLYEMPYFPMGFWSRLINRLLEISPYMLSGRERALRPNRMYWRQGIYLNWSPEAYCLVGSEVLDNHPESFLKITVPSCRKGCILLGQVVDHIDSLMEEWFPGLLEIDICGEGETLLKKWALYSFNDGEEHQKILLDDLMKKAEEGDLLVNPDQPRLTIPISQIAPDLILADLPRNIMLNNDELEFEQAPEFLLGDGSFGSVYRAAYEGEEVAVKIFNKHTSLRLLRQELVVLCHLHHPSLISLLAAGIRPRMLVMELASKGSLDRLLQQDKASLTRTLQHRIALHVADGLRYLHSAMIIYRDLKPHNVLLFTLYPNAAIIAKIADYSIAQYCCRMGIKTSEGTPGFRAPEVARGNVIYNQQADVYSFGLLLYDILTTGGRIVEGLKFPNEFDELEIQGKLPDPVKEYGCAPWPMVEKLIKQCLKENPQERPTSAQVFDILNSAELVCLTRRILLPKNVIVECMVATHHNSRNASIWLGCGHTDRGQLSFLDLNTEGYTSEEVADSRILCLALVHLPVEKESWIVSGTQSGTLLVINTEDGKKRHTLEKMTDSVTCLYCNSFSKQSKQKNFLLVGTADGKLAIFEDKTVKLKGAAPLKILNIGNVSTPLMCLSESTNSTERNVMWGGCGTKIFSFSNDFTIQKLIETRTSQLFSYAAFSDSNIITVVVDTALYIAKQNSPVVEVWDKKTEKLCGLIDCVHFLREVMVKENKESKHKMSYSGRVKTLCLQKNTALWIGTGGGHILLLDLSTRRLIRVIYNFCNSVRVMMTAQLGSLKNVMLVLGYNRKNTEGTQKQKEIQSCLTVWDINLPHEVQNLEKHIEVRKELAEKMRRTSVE
Method: LRRK2 kinase activity was measured using Lantha Screen technology from Invitrogen. GST-tagged truncated LRRK2 from Invitrogen (Cat # PV4874) was incubated with a fluorescein-labeled peptide substrate based upon ezrin/radixin/moesin (ERM), also known as LRRKtide (Invitrogen cat #PR8976A), in the presence of a dose response of compound. Upon completion, the assay was stopped and detected with a terbium labeled anti-phospho-ERM antibody (Invitrogen, cat #PR8975A). […] Aliquots (3.5 μL) of the 100% DMSO dose response were mixed with 46.5 μL water then 1 μL of this mixture was added to the 3 μL substrate mix in the 384-well plate. The kinase reaction was started with 3 μL of a working solution of LRRK2 enzyme at a concentration of 4 μg/mL. […] The reaction was allowed to progress at room temperature for two hours and then stopped with the addition of 7 μL of detection buffer (20 mM Tris pH 7.6, 0.01% NP-40, 0.02% NaN3, 6 mM EDTA with 2 nM terbium labeled anti-phospho-ERM).
All final concentrations of substrate ATP and enzyme were the same.

GST-tagged truncated LRRK2, sequence (Q5S007 970-2527): as the sequence (Q5S007 970-2527 G2019S) above, with S1050G counted along it

| IC50 [1] [nM] | IC50 (mutant G2019S LRRK2) [nM] | SMILES |
| --- | --- | --- |
| 55 | 155 | Cc1nc(CC2CN(c3ncnc4[nH]cc(-c5cccc(C#N)c5)c34)CCO2)no1 (stereo not shown) [Example 145, 3-(4-{2-[(5-methyl-1,2,4-oxadiazol-3-yl)methyl]morpholin-4-yl}-7H-pyrrolo[2,3-d]pyrimidin-5-yl)benzonitrile] |
| 96 | 217 | Cc1nnc(C2CCCN(c3ncnc4[nH]cc(-c5cccc(C#N)c5)c34)C2)o1 (stereo not shown) [Example 146, 3-{4-[3-(5-methyl-1,3,4-oxadiazol-2-yl)piperidin-1-yl]-7H-pyrrolo[2,3-d]pyrimidin-5-yl}benzonitrile] |
| 37 | 93 | COc1cc(C#N)cc(-c2c[nH]c3ncnc(N(C)C)c23)c1 [Example 147, 3-[4-(dimethylamino)-7H-pyrrolo[2,3-d]pyrimidin-5-yl]-5-methoxybenzonitrile] |
| 77 | 92 | CCn1cc(-c2c[nH]c3ncnc(N4CCOCC4)c23)cn1 [Example 148, 5-(1-ethyl-1H-pyrazol-4-yl)-4-(morpholin-4-yl)-7H-pyrrolo[2,3-d]pyrimidine] |
| 18 | 30 | Cc1cncc(-c2c[nH]c3ncnc(N4CCOCC4)c23)c1 [Example 149, 5-(5-methylpyridin-3-yl)-4-(morpholin-4-yl)-7H-pyrrolo[2,3-d]pyrimidine] |
| 28 | 36 | Clc1cncc(-c2c[nH]c3ncnc(N4CCOCC4)c23)c1 [Example 150, 5-(5-chloropyridin-3-yl)-4-(morpholin-4-yl)-7H-pyrrolo[2,3-d]pyrimidine] |
| 32 | 37 | COc1cncc(-c2c[nH]c3ncnc(N4CCOCC4)c23)n1 [Example 151, 5-(6-methoxypyrazin-2-yl)-4-(morpholin-4-yl)-7H-pyrrolo[2,3-d]pyrimidine] |
| 60 | 91 | Cc1nn(C)cc1-c1c[nH]c2ncnc(N3CCOCC3)c12 [Example 152, 5-(1,3-dimethyl-1H-pyrazol-4-yl)-4-(morpholin-4-yl)-7H-pyrrolo[2,3-d]pyrimidine] |
| 44 | 165 | C[C@H]1COCCN1c1ncnc2[nH]cc(-c3cccc(C#N)c3)c12 [Example 153, 3-{4-[(3S)-3-methylmorpholin-4-yl]-7H-pyrrolo[2,3-d]pyrimidin-5-yl}benzonitrile] |
| 30 | 365 | Cc1nc(N2CCOCC2)c2c(-c3cccc(C#N)c3F)c[nH]c2n1 [Example 154, 2-fluoro-3-[2-methyl-4-(morpholin-4-yl)-7H-pyrrolo[2,3-d]pyrimidin-5-yl]benzonitrile] |
| 8 | 37 | N#Cc1cccc(-c2c[nH]c3ncnc(N4CCC[C@@H](O)C4)c23)c1 [Example 155, 3-{4-[(3R)-3-hydroxypiperidin-1-yl]-7H-pyrrolo[2,3-d]pyrimidin-5-yl}benzonitrile] |
| 57 | 86 | OC1CCCN(c2ncnc3[nH]cc(-c4cccc(F)c4)c23)C1 (stereo not shown) [Example 156, 1-[5-(3-fluorophenyl)-7H-pyrrolo[2,3-d]pyrimidin-4-yl]piperidin-3-ol] |
| 44 | 46 | COc1ccc(F)cc1-c1c[nH]c2ncnc(N3CCOC(c4noc(C)n4)C3)c12 (stereo not shown) [Example 157, 5-(5-fluoro-2-methoxyphenyl)-4-[2-(5-methyl-1,2,4-oxadiazol-3-yl)morpholin-4-yl]-7H-pyrrolo[2,3-d]pyrimidine] |
| 18 | 86 | N#Cc1cccc(-c2c[nH]c3ncnc(N4CCC(F)CC4)c23)c1F [Example 158, 2-fluoro-3-[4-(4-fluoropiperidin-1-yl)-7H-pyrrolo[2,3-d]pyrimidin-5-yl]benzonitrile] |
| 67 | 74 | COc1ccccc1-c1c[nH]c2ncnc(N3CCC(F)CC3)c12 [Example 159, 4-(4-fluoropiperidin-1-yl)-5-(2-methoxyphenyl)-7H-pyrrolo[2,3-d]pyrimidine] |
| 84 | 96 | COc1cc(F)cc(-c2c[nH]c3ncnc(N4CCC(F)CC4)c23)c1 [Example 160, 5-(3-fluoro-5-methoxyphenyl)-4-(4-fluoropiperidin-1-yl)-7H-pyrrolo[2,3-d]pyrimidine] |
| 36 | 67 | Cc1cncc(-c2c[nH]c3ncnc(N4CCCC(O)C4)c23)c1 (stereo not shown) [Example 162, 1-[5-(5-methylpyridin-3-yl)-7H-pyrrolo[2,3-d]pyrimidin-4-yl]piperidin-3-ol] |
| 25 | 29 | COc1ccc(F)cc1-c1c[nH]c2ncnc(N3CCC(F)CC3)c12 [Example 163, 5-(5-fluoro-2-methoxyphenyl)-4-(4-fluoropiperidin-1-yl)-7H-pyrrolo[2,3-d]pyrimidine] |
| 29 | 38 | COc1cc(F)cc(-c2c[nH]c3ncnc(N4CCCC(O)C4)c23)c1 (stereo not shown) [Example 164, 1-[5-(3-fluoro-5-methoxyphenyl)-7H-pyrrolo[2,3-d]pyrimidin-4-yl]piperidin-3-ol] |

| IC50 [1] [nM] | IC50 (mutant G2019S LRRK2) [nM] | SMILES |
| --- | --- | --- |
| 58 | 62 | COc1ccccc1-c1c[nH]c2ncnc(N3CCCC(O)C3)c12 (stereo not shown) [Example 165, 1-[5-(2-methoxyphenyl)-7H-pyrrolo[2,3-d]pyrimidin-4-yl]piperidin-3-ol] |
| 38 | 272 | Cc1noc(C2CN(c3ncnc4[nH]cc(-c5cccc(C#N)c5F)c34)CCO2)n1 (stereo not shown) [Example 166, 2-fluoro-3-{4-[2-(3-methyl-1,2,4-oxadiazol-5-yl)morpholin-4-yl]-7H-pyrrolo[2,3-d]pyrimidin-5-yl}benzonitrile] |
| 61 | 372 | COCC1CN(c2ncnc3[nH]cc(-c4cccc(C#N)c4F)c23)CCO1 (stereo not shown) [Example 167, 2-fluoro-3-{4-[2-(methoxymethyl)morpholin-4-yl]-7H-pyrrolo[2,3-d]pyrimidin-5-yl}benzonitrile] |
| 85 | 75 | COc1ccc(F)cc1-c1c[nH]c2ncnc(N3CCC3)c12 [Example 168, 4-(azetidin-1-yl)-5-(5-fluoro-2-methoxyphenyl)-7H-pyrrolo[2,3-d]pyrimidine] |
| 99 | 280 | Cc1cncc(-c2c[nH]c3ncnc(N4CCO[C@@H](C)C4)c23)c1 [Example 169, 4-[(2S)-2-methylmorpholin-4-yl]-5-(5-methylpyridin-3-yl)-7H-pyrrolo[2,3-d]pyrimidin] |
| 43 | 29 | COc1ccccc1-c1c[nH]c2ncnc(N(C)C)c12 [Example 173, 5-(2-methoxyphenyl)-N,N-dimethyl-7H-pyrrolo[2,3-d]pyrimidin-4-amine] |
| 41 | 54 | COc1ccccc1-c1c[nH]c2ncnc(N3CC[C@H](F)C3)c12 [Example 175, 4-[(3S)-3-fluoropyrrolidin-1-yl]-5-(2-methoxyphenyl)-7H-pyrrolo[2,3-d]pyrimidine] |
| 54 | 68 | COc1ccccc1-c1c[nH]c2ncnc(N3CCCC3)c12 [Example 176, 5-(2-methoxyphenyl)-4-(pyrrolidin-1-yl)-7H-pyrrolo[2,3-d]pyrimidine] |
| 41 | 49 | COc1cc(F)cc(-c2c[nH]c3ncnc(N(C)C)c23)c1 [Example 177, 5-(3-fluoro-5-methoxyphenyl)-N,N-dimethyl-7H-pyrrolo[2,3-d]pyrimidin-4-amine] |
| 9 | 42 | N#Cc1cccc(-c2c[nH]c3ncnc(N4CCCC(O)C4)c23)c1F (stereo not shown) [Example 178, 2-fluoro-3-[4-(3-hydroxypiperidin-1-yl)-7H-pyrrolo[2,3-d]pyrimidin-5-yl]benzonitrile] |
| 19 | 30 | COc1ccc(F)cc1-c1c[nH]c2ncnc(N3CCO[C@@H](C)C3)c12 [Example 179, 5-(5-fluoro-2-methoxyphenyl)-4-[(2S)-2-methylmorpholin-4-yl]-7H-pyrrolo[2,3-d]pyrimidine] |
| 10 | 62 | C[C@H]1CN(c2ncnc3[nH]cc(-c4cccc(C#N)c4F)c23)CCO1 [Example 180, 2-fluoro-3-{4-[(2S)-2-methylmorpholin-4-yl]-7H-pyrrolo[2,3-d]pyrimidin-5-yl}benzonitrile] |
| 22 | 24 | COc1ccc(F)cc1-c1c[nH]c2ncnc(N3CCCC(F)C3)c12 (stereo not shown) [Example 181, 5-(5-fluoro-2-methoxyphenyl)-4-(3-fluoropiperidin-1-yl)-7H-pyrrolo[2,3-d]pyrimidine] |
| 38 | 82 | C[C@H]1CN(c2ncnc3[nH]cc(-c4cccc(F)c4)c23)CCO1 [Example 182, 5-(3-fluorophenyl)-4-[(2S)-2-methylmorpholin-4-yl]-7H-pyrrolo[2,3-d]pyrimidine] |
| 13 | 11 | COc1ccc(F)cc1-c1c[nH]c2ncnc(N(C)C)c12 [Example 183, 5-(5-fluoro-2-methoxyphenyl)-N,N-dimethyl-7H-pyrrolo[2,3-d]pyrimidin-4-amine] |
| 15 | 82 | N#Cc1cccc(-c2c[nH]c3ncnc(N4CCCC4)c23)c1F [Example 184, 2-fluoro-3-[4-(pyrrolidin-1-yl)-7H-pyrrolo[2,3-d]pyrimidin-5-yl]benzonitrile] |
| 15 | 23 | COc1ccc(F)cc1-c1c[nH]c2ncnc(N3CC[C@H](F)C3)c12 [Example 185, 5-(5-fluoro-2-methoxyphenyl)-4-[(3S)-3-fluoropyrrolidin-1-yl]-7H-pyrrolo[2,3-d]pyrimidine] |
| 17 | 90 | Cc1nc(C2CN(c3ncnc4[nH]cc(-c5cccc(C#N)c5F)c34)CCO2)no1 (stereo not shown) [Example 186, 2-fluoro-3-{4-[2-(5-methyl-1,2,4-oxadiazol-3-yl)morpholin-4-yl]-7H-pyrrolo[2,3-d]pyrimidin-5-yl}benzonitrile] |
| 43 | 90 | Cc1ccnc(-c2c[nH]c3ncnc(N4CCOCC4)c23)c1 [Example 188, 5-(4-methylpyridin-2-yl)-4-(morpholin-4-yl)-7H-pyrrolo[2,3-d]pyrimidine] |

Reference: US9156845B2, “4-(substituted amino)-7H-pyrrolo[2,3-d] pyrimidines as LRRK2 inhibitors” (Pfizer Inc., priority 2012, dated 2015)
